The source of these data is patent publication US9066848B2, “Process for making sterile aripiprazole of desired mean particle size” (Bristol-Myers Squibb Company, priority 2003, dated 2015).

SMILES strings stand for the structures.

A short description of series [1]: particle size of crystallized bulk aripiprazole. It is filed as physicochemical.
The conditions of series [2]: at room temperature; cited from earlier work.

The term aqueous solubility denotes the concentration that dissolves in the medium under given conditions. For the compound `O=C1CCc2ccc(OCCCCN3CCN(c4cccc(Cl)c4Cl)CC3)cc2N1` [Aripiprazole, aripiprazole], the “particle size (95% of particles)” value in series [1] (Example 1: impinging jet crystallization with sonication, 2° C. water anti-solvent) is listed as less than 100 microns; in series [1] (Example 2: impinging jet crystallization without sonication, 30° C. water anti-solvent), less than 100 microns. The particle size in series [1] (batch crystallization (comparison)) was found to be 100 microns. Moreover, in series [2], the aqueous solubility is less than 1 µg/mL.
